pIC50: −log10 of the molar value.
Tests used:
[1] = biological target: NAMPT (human, recombinant, C-terminally His-tagged) (Homo sapiens, UniProt P43490); experiment: Time-Resolved Fluorescence Resonance Energy Transfer (TR-FRET) Binding Assay of NAMPT; settings: 6.8 nM NAMPT, 200 nM probe, equilibrated 3 hours, absence of substrates
Method in brief: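 Recombinant C-terminally His-tagged human NAMPT (6.8 nM) incubated 3 h at room temperature with 200 nM Oregon Green 488–labelled nicotinamide-competitive probe and 1 nM Tb-anti-His antibody in HEPES pH 7.5, 2% DMSO. TR-FRET ratio Em520/Em495 normalized to controls; IC50 from four-parameter logistic fit.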

NAMPT = NAMPT (Homo sapiens, UniProt P43490); experiment: Time-Resolved Fluorescence Resonance Energy Transfer (TR-FRET) Binding Assay of NAMPT with PRPP; settings: 2 nM NAMPT, 2 nM probe, 200 uM PRPP and 2.5 mM ATP, equilibrated 16 hours
NAMPT, sequence (P43490 whole entry): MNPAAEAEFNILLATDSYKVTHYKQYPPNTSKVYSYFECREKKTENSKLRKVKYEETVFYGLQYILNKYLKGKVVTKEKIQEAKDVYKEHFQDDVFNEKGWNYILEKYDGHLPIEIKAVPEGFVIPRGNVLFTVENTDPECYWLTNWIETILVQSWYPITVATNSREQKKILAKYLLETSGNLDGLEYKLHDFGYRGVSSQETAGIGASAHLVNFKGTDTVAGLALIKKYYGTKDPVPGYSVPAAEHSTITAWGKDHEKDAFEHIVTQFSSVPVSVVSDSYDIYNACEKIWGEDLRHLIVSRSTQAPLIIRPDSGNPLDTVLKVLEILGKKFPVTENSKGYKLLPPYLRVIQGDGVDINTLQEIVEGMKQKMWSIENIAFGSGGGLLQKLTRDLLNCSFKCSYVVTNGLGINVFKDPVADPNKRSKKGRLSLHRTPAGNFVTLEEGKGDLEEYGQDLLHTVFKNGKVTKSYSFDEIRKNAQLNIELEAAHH
Method in brief: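 Final mix: 2 nM NAMPT, 2 nM probe, 1 nM Tb-anti-His antibody, 200 uM PRPP, 2.5 mM ATP, 2% DMSO in 1× assay buffer. Equilibrated 16 hours before TR-FRET read, allowing possible enzymatic modification of compounds.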

NAMPT (human, recombinant, C-terminally His-tagged), sequence (P43490 whole entry): as above

| SMILES | pIC50 [1] | pIC50 (NAMPT) |
| --- | --- | --- |
| COCC(=O)N1CCC(Oc2ccc(NC(=O)C3CN(c4ccnnc4)C3)cc2)CC1 [Example 267, N-(4-{[1-(methoxyacetyl)piperidin-4-yl]oxy}phenyl)-1-(pyridazin-4-yl)azetidine-3-carboxamide] | 6.56 | 7.25 |
| CC1CC1C(=O)N1CCC(Oc2ccc(NC(=O)C3CN(c4cccnc4)C3)cc2)CC1 (stereo not drawn) [Example 35, N-[4-({1-[(2-methylcyclopropyl)carbonyl]piperidin-4-yl}oxy)phenyl]-1-(pyridin-3-yl)azetidine-3-carboxamide] | 7.04 | 9.06 |
| Cc1ncccc1N1CC(C(=O)Nc2ccc(C3CCN(C(=O)C(C)C(C)C)CC3)cc2)C1 (stereo not drawn) [Example 198, N-{4-[1-(2,3-dimethylbutanoyl)piperidin-4-yl]phenyl}-1-(2-methylpyridin-3-yl)azetidine-3-carboxamide] | 7.07 | 6.99 |
| O=C(Nc1ccc(C2CCN(C(=O)CC(F)(F)F)CC2)cc1)C1CN(c2cccnn2)C1 [Example 332, 1-(pyridazin-3-yl)-N-{4-[1-(3,3,3-trifluoropropanoyl)piperidin-4-yl]phenyl}azetidine-3-carboxamide] | 7.66 | 9.16 |
| O=C(Nc1ccc(OC2CCN(CCC3CC3)CC2)cc1)C1CN(c2cccnc2)C1 [Example 82, N-(4-{[1-(2-cyclopropylethyl)piperidin-4-yl]oxy}phenyl)-1-(pyridin-3-yl)azetidine-3-carboxamide] | 6.02 | 9.28 |
| CC(C)CC(=O)N1CCC(Oc2ccc(NC(=O)C3CN(c4ccnnc4)C3)cc2)CC1 [Example 266, N-(4-{[1-(3-methylbutanoyl)piperidin-4-yl]oxy}phenyl)-1-(pyridazin-4-yl)azetidine-3-carboxamide] | 6.92 | 7.27 |
| O=C(Nc1ccc(C2CCN(C(=O)c3cccc(OC(F)(F)F)c3)CC2)cc1)C1CN(c2cccnn2)C1 [Example 356, 1-(pyridazin-3-yl)-N-(4-{1-[3-(trifluoromethoxy)benzoyl]piperidin-4-yl}phenyl)azetidine-3-carboxamide] | 7.17 | 9.06 |
| O=C(Nc1ccc(OC2CCN(C(=O)c3cccc(Cl)c3)CC2)cc1)C1CN(c2cccnn2)C1 [Example 250, N-(4-{[1-(3-chlorobenzoyl)piperidin-4-yl]oxy}phenyl)-1-(pyridazin-3-yl)azetidine-3-carboxamide] | 6.97 | 9.19 |
| O=C(Nc1ccc(OC2CCN(C(=O)C3CCC(F)(F)CC3)CC2)cc1)C1CN(c2cccnn2)C1 [Example 216, N-[4-({1-[(4,4-difluorocyclohexyl)carbonyl]piperidin-4-yl}oxy)phenyl]-1-(pyridazin-3-yl)azetidine-3-carboxamide] | 6.64 | 8.85 |
| O=C(Nc1ccc(OC2CN(C(=O)c3ccccc3)C2)cc1)C1CN(c2ccnnc2)C1 [Example 206, N-{4-[(1-benzoylazetidin-3-yl)oxy]phenyl}-1-(pyridazin-4-yl)azetidine-3-carboxamide] | 7.62 | 7.62 |
| Cc1ncccc1N1CC(C(=O)Nc2ccc(C3CCN(C(=O)CC4C[C@@H]5CC[C@H]4C5)CC3)cc2)C1 (stereo partly drawn) [Example 161, N-(4-{1-[(1S,4R)-bicyclo[2.2.1]hept-2-ylacetyl]piperidin-4-yl}phenyl)-1-(2-methylpyridin-3-yl)azetidine-3-carboxamide] | 6.89 | 7.22 |
| Cc1ncccc1N1CC(C(=O)Nc2ccc(C3CCN(C(=O)CC(C)C)CC3)cc2)C1 [Example 197, N-{4-[1-(3-methylbutanoyl)piperidin-4-yl]phenyl}-1-(2-methylpyridin-3-yl)azetidine-3-carboxamide] | 6.90 | 7.10 |
| O=C(Nc1ccc(C2CCN(C(=O)c3cc(Cl)cc(Cl)c3)CC2)cc1)C1CN(c2cccnn2)C1 [Example 365, N-{4-[1-(3,5-dichlorobenzoyl)piperidin-4-yl]phenyl}-1-(pyridazin-3-yl)azetidine-3-carboxamide] | 7.30 | 8.98 |
| O=C(Nc1ccc(C2CCN(C(=O)CC3CCCCC3)CC2)cc1)C1CN(c2cccnc2)C1 [Example 119, N-{4-[1-(cyclohexylacetyl)piperidin-4-yl]phenyl}-1-(pyridin-3-yl)azetidine-3-carboxamide] | 8.21 | 9.77 |
| CC(C)CCC(=O)N1CCC(Oc2ccc(NC(=O)C3CN(c4cccnc4)C3)cc2)CC1 [Example 37, N-(4-{[1-(4-methylpentanoyl)piperidin-4-yl]oxy}phenyl)-1-(pyridin-3-yl)azetidine-3-carboxamide] | 7.16 | 9.01 |
| CC(C)Cn1cc(-c2ccc(NC(=O)C3CN(c4ccnnc4)C3)cc2)cn1 [Example 148, N-{4-[1-(2-methylpropyl)-1H-pyrazol-4-yl]phenyl}-1-(pyridazin-4-yl)azetidine-3-carboxamide] | 7.37 | 7.70 |
| O=C(Nc1ccc(OC2CCN(C(=O)CC3CCOCC3)CC2)cc1)C1CN(c2cnccc2F)C1 [Example 6, 1-(4-fluoropyridin-3-yl)-N-(4-{[1-(tetrahydro-2H-pyran-4-ylacetyl)piperidin-4-yl]oxy}phenyl)azetidine-3-carboxamide] | 6.26 | 8.63 |
| Cc1ncccc1N1CC(C(=O)Nc2ccc(C3CCN(C(=O)c4cccs4)CC3)cc2)C1 [Example 187, 1-(2-methylpyridin-3-yl)-N-{4-[1-(thiophen-2-ylcarbonyl)piperidin-4-yl]phenyl}azetidine-3-carboxamide] | 7.99 | 7.56 |
| O=C(Nc1ccc(OC2CCN(C(=O)C(F)(F)c3ccccc3)CC2)cc1)C1CN(c2cccnn2)C1 [Example 215, N-[4-({1-[difluoro(phenyl)acetyl]piperidin-4-yl}oxy)phenyl]-1-(pyridazin-3-yl)azetidine-3-carboxamide] | 7.17 | 8.94 |
| O=C(Nc1ccc(OC2CCN(C(=O)c3ccc(F)cc3F)CC2)cc1)C1CN(c2ccnnc2)C1 [Example 284, N-(4-{[1-(2,4-difluorobenzoyl)piperidin-4-yl]oxy}phenyl)-1-(pyridazin-4-yl)azetidine-3-carboxamide] | 7.20 | 7.42 |
| O=C(Nc1ccc(C2CCN(C(=O)c3ccc(F)cc3)CC2)cc1)C1CN(c2cccnn2)C1 [Example 349, N-{4-[1-(4-fluorobenzoyl)piperidin-4-yl]phenyl}-1-(pyridazin-3-yl)azetidine-3-carboxamide] | 7.23 | 9.13 |
| CC(C)(C)CCN1CCC(c2ccc(NC(=O)C3CN(c4cccnc4)C3)cc2)CC1 [Example 87, N-{4-[1-(3,3-dimethylbutyl)piperidin-4-yl]phenyl}-1-(pyridin-3-yl)azetidine-3-carboxamide] | 5.86 | 8.90 |
| Cc1ncccc1N1CC(C(=O)Nc2ccc(C3CCN(C(=O)c4cccn4C)CC3)cc2)C1 [Example 188, 1-(2-methylpyridin-3-yl)-N-(4-{1-[(1-methyl-1H-pyrrol-2-yl)carbonyl]piperidin-4-yl}phenyl)azetidine-3-carboxamide] | 7.69 | 7.30 |
| O=C(Nc1ccc(OC2CCN(C(=O)c3ccc(Cl)cc3)CC2)cc1)C1CN(c2ccnnc2)C1 [Example 297, N-(4-{[1-(4-chlorobenzoyl)piperidin-4-yl]oxy}phenyl)-1-(pyridazin-4-yl)azetidine-3-carboxamide] | 6.98 | 7.33 |

Source: patent US8975398B2, “NAMPT inhibitors” (AbbVie Inc., priority 2012, dated 2015)
